In brackets after ≈: the same amount, converted by molar mass.
Assays:
Cytochrome P450 3A4 = Cytochrome P450 3A4 (Homo sapiens, UniProt P08684); assay: Inhibition of CYP3A4 (unknown origin); type: ADME
[1] = biological target: Voltage-gated inwardly rectifying potassium channel KCNH2 (Homo sapiens, UniProt Q12809); assay: Inhibition of human ERG by patch clamp assay
[2] = biological target: T1, Nuclear receptor subfamily 1 group I member 2 (Homo sapiens, UniProt O75469); assay: Transactivation of PXR (unknown origin); type: ADME
T1 sequence (O75469 whole entry): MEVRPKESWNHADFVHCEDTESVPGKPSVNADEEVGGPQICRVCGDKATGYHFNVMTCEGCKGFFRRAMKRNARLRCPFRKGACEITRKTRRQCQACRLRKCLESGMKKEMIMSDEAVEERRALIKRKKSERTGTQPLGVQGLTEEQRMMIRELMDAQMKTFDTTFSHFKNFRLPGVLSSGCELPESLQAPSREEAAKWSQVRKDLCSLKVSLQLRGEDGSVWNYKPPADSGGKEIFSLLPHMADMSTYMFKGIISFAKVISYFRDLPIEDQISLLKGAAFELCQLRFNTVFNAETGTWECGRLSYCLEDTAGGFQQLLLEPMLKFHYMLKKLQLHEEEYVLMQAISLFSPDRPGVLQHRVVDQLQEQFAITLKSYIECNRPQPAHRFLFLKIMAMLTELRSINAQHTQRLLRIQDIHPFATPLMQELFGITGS

[3] = biological target: Voltage-dependent L-type calcium channel subunit alpha-1C (Homo sapiens, UniProt Q13936); assay: Inhibition of Cav1.2 (unknown origin)
Voltage-dependent L-type calcium channel subunit alpha-1C, sequence (Q13936 whole entry): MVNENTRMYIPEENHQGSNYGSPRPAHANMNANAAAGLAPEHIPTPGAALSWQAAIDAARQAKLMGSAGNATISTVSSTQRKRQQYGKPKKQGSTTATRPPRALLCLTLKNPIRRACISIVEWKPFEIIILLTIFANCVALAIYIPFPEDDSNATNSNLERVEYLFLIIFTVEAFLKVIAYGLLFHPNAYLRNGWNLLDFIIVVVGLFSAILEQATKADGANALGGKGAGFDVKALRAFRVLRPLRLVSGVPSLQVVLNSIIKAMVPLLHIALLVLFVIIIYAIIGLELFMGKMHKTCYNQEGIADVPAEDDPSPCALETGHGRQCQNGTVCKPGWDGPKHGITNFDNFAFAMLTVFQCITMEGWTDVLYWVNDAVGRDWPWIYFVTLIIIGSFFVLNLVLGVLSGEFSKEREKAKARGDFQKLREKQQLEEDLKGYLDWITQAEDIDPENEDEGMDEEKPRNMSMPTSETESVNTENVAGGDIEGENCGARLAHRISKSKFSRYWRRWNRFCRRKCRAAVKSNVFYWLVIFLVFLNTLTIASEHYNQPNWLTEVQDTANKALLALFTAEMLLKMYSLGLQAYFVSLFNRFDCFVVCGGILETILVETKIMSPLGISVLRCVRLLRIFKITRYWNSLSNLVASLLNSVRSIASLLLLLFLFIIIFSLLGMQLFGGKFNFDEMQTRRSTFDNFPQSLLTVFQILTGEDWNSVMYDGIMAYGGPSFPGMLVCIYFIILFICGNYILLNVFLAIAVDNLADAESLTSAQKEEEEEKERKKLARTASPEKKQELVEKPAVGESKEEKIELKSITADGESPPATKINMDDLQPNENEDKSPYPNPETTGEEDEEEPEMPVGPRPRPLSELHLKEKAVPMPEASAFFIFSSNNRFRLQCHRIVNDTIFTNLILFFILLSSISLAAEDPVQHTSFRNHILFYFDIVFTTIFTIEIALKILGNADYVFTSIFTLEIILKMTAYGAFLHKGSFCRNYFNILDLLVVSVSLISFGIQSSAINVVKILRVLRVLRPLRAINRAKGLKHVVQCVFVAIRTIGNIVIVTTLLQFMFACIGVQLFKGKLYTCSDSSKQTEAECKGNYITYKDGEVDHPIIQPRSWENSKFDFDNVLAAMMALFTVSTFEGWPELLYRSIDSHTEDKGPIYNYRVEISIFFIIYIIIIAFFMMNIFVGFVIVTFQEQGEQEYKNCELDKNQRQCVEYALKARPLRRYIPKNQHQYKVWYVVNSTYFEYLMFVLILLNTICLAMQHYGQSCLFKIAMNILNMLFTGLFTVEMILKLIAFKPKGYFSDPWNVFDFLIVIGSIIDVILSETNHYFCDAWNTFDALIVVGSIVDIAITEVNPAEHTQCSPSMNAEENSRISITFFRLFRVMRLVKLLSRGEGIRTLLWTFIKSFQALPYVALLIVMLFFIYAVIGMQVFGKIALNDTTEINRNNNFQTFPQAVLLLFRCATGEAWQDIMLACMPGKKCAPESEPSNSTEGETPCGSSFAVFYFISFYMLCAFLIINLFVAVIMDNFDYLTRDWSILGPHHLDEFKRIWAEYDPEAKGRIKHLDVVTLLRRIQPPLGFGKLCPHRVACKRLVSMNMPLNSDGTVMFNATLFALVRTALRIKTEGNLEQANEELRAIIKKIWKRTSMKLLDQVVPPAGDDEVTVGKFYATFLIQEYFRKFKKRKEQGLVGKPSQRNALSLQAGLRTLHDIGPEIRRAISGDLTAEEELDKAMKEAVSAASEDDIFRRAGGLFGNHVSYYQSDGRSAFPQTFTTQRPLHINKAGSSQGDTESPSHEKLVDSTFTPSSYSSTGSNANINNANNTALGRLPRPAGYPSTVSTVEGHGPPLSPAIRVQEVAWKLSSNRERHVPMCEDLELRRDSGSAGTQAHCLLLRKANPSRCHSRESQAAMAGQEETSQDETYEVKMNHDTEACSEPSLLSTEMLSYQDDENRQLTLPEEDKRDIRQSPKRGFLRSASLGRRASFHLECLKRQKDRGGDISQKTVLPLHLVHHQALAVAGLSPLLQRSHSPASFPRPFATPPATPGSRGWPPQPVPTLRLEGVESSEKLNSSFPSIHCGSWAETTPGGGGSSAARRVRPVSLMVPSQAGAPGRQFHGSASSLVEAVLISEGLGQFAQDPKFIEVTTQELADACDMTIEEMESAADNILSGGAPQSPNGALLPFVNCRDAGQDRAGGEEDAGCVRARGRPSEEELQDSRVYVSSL

[4] = biological target: Sodium channel protein type 5 subunit alpha (Homo sapiens, UniProt Q14524); assay: Inhibition of Nav1.5 (unknown origin)
Sodium channel protein type 5 subunit alpha, sequence (Q14524 whole entry): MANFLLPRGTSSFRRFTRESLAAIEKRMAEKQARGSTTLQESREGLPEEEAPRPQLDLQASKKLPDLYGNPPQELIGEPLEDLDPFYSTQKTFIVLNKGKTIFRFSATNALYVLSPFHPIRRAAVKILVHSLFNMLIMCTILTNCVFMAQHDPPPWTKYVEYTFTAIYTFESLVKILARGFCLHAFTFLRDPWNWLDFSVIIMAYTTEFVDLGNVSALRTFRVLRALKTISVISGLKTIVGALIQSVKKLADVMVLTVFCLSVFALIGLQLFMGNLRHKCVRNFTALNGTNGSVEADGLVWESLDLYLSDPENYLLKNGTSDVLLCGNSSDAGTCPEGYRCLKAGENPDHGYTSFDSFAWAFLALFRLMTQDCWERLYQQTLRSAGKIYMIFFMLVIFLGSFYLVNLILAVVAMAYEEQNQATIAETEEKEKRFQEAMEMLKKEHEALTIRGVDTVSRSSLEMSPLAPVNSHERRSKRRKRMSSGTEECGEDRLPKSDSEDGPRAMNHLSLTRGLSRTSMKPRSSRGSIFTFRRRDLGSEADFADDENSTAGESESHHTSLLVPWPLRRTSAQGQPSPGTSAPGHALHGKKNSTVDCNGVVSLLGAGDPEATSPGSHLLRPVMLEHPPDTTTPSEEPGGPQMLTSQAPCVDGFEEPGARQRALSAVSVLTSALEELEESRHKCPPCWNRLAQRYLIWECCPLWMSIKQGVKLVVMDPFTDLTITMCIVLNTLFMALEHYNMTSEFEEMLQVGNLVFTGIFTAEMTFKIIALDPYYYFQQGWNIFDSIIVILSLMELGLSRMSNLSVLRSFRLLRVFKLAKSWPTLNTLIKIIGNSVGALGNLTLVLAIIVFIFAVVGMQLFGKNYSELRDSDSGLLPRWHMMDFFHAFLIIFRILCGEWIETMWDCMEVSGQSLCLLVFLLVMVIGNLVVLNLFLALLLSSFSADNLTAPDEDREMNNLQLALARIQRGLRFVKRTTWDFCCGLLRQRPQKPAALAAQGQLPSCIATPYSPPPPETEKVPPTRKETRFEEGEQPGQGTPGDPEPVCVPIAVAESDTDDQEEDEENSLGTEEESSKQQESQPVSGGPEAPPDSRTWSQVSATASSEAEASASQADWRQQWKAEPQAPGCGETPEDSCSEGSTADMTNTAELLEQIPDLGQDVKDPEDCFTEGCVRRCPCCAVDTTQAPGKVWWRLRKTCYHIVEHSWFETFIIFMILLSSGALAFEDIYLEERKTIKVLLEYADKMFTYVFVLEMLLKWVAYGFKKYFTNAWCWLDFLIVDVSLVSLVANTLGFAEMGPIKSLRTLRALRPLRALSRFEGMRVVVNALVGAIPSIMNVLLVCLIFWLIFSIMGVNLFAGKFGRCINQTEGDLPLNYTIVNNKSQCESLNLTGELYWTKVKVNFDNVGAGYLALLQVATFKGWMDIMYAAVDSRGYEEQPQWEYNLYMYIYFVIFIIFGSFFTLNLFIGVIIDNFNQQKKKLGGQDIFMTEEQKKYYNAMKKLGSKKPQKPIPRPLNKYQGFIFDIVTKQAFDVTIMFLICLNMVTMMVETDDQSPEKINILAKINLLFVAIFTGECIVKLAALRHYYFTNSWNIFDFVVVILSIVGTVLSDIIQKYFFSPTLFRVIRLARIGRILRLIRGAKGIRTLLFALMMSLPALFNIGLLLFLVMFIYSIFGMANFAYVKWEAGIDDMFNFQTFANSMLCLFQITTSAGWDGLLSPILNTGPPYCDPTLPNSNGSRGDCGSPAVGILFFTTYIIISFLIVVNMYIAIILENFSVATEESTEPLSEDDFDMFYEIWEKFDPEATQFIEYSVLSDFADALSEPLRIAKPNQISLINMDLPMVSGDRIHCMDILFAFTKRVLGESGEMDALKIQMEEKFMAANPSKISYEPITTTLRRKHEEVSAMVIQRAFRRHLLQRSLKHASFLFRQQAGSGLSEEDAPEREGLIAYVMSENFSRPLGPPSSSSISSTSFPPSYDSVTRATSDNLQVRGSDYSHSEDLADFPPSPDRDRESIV

[5] = Solubility of the compound in FaSSIF using crystalline sample; type: physicochemical
[6] = Apparent permeability in dog MDCK cells; type: ADME, cell-based, Canis lupus familiaris
[7] = Clearance in rat at 1 mg/kg, iv; type: ADME, organism-based; settings: in vivo
[8] = Half life in rat at 1 mg/kg, iv; type: ADME, organism-based; settings: in vivo
[9] = Cmax in rat at 5 mg/kg, po; type: ADME, organism-based; design: dose 5 mg/kg, route oral; settings: in vivo
[10] = AUC in rat at 5 mg/kg, po; type: ADME, organism-based; settings: in vivo
[11] = Oral bioavailability in rat at 5 mg/kg; type: ADME, organism-based; settings: in vivo
[12] = Drug concentration in rat plasma at 5 mg/kg, po after 24 hrs; type: ADME, organism-based
[13] = Clearance in dog at 0.5 mg/kg, iv; type: ADME, organism-based, Canis lupus familiaris; settings: in vivo
[14] = Half life in dog at 0.5 mg/kg, iv; type: ADME, organism-based, Canis lupus familiaris; settings: in vivo
[15] = Cmax in dog at 2 mg/kg, po; type: ADME, organism-based, Canis lupus familiaris; design: dose 2 mg/kg, route oral; settings: in vivo
[16] = AUC in dog at 2 mg/kg, po; type: ADME, organism-based, Canis lupus familiaris; settings: in vivo
[17] = Oral bioavailability in dog at 2 mg/kg; type: ADME, organism-based, Canis lupus familiaris; settings: in vivo
[18] = Drug concentration in dog plasma at 2 mg/kg, po after 24 hrs; type: ADME, organism-based, Canis lupus familiaris
[19] = Clearance in monkey at 1 mg/kg, iv; type: ADME, organism-based, Macaca mulatta; settings: rhesus monkey, in vivo
[20] = Half life in monkey at 1 mg/kg, iv; type: ADME, organism-based, Macaca mulatta; settings: rhesus monkey, in vivo
[21] = Cmax in monkey at 3 mg/kg, po; type: ADME, organism-based, Macaca mulatta; design: dose 3 mg/kg, route oral; settings: rhesus monkey, in vivo
[22] = AUC in monkey at 3 mg/kg, po; type: ADME, organism-based, Macaca mulatta; settings: rhesus monkey, in vivo
[23] = Oral bioavailability in monkey at 3 mg/kg; type: ADME, organism-based, Macaca mulatta; settings: rhesus monkey, in vivo
[24] = Drug concentration in monkey plasma at 3 mg/kg, po after 24 hrs; type: ADME, organism-based, Macaca mulatta; settings: rhesus monkey
[25] = AUC in rat at 10 mg/kg, po using spray dry sample; type: ADME, organism-based; settings: in vivo
[26] = AUC in rat at 100 mg/kg, po using spray dry sample; type: ADME, organism-based; settings: in vivo
[27] = AUC in rat at 650 mg/kg, po using spray dry sample; type: ADME, organism-based; settings: in vivo
[28] = Cmax in rat at 10 mg/kg, po using spray dry sample; type: ADME, organism-based; design: dose 10 mg/kg, route oral; settings: in vivo
[29] = Cmax in rat at 100 mg/kg, po using spray dry sample; type: ADME, organism-based; design: dose 100 mg/kg, route oral; settings: in vivo
[30] = Cmax in rat at 650 mg/kg, po using spray dry sample; type: ADME, organism-based; design: dose 650 mg/kg, route oral; settings: in vivo
[31] = Tmax in rat at 5 mg/kg, po; type: ADME, organism-based; settings: in vivo
[32] = AUC in rat at 100 mg/kg, po using conventional sample; type: ADME, organism-based; settings: in vivo
[33] = AUC in rat at 300 mg/kg, po using spray dry sample; type: ADME, organism-based; settings: in vivo
[34] = Cmax in rat at 300 mg/kg, po using spray dry sample; type: ADME, organism-based; design: dose 300 mg/kg, route oral; settings: in vivo
[35] = Drug metabolism in solvent assessed as oxidation by measuring cpd 1 formation under air exposure

Cytochrome P450 3A4, sequence (P08684 whole entry): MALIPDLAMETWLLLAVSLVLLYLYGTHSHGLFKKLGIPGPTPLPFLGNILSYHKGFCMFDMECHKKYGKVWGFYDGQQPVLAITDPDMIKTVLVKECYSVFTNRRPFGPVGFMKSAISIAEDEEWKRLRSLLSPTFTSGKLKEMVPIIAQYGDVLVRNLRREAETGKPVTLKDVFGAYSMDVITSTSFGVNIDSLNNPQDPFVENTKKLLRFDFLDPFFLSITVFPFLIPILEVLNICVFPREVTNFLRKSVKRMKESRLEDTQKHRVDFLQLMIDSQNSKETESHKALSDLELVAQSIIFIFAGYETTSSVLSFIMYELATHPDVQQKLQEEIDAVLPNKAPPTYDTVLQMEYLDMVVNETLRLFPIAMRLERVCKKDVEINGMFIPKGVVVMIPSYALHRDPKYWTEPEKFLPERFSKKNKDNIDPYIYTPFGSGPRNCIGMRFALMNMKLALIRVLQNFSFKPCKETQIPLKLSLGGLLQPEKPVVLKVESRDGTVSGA

Structure (SMILES)	IC50 (Cytochrome P450 3A4) [µM]	EC50 [2] [µM]	Papp [6] [×10⁻⁶ cm/s]	clearance [7] [mL/min/kg]	half-life [8] [min]	Cmax [9] [nM]	AUC [10] [µM·h]	bioavailability [11] [%]	concentration at 24 h [12] [nM]	clearance [13] [mL/min/kg]	half-life [14] [min]	Cmax [15] [nM]	AUC [16] [µM·h]	bioavailability [17] [%]	concentration at 24 h [18] [nM]	clearance [19] [mL/min/kg]	half-life [20] [min]	IC50 [1] [µM]	IC50 [3] [µM]	IC50 [4] [µM]	other results
CNC(=O)c1c(-c2ccc(F)cc2)oc2cc(N(C)S(C)(=O)=O)c(-c3cc4n(c(=O)c3)CCn3c-4cc4c(F)cccc43)cc12	–	–	–	17	258	190	0.078	1	–	–	–	–	–	–	–	–	–	–	–	–	Tmax [31]: 1 h
CNC(=O)c1c(-c2ccc(F)cc2)oc2cc(N(C)S(C)(=O)=O)c(-c3ccc4ncn5c6cccc(F)c6cc5c4n3)cc12	> 50	> 30	10.2	8.5	504	580	5.2	36	110	3.2	1020	840	9.4	64	130	4.7	366	> 30	22	> 30	solubility thermodynamic [5]: 1.02 µg/mL (≈ 1.67 µM); Cmax [21]: 660 nM; AUC [22]: 3.4 µM·h; bioavailability [23]: 20%; concentration at 24 h [24]: 10 nM; AUC [32]: 0.67 µM·h; AUC [25]: 32 µM·h; AUC [26]: 136 µM·h; AUC [33]: 181 µM·h; Cmax [28]: 2700 nM; Cmax [29]: 8.5 µM; Cmax [34]: 5.6 µM
CNC(=O)c1c(-c2ccc(F)cc2)oc2cc(N(C)S(C)(=O)=O)c(-c3ccc4c(n3)-c3cc5c(F)cccc5n3CN4)cc12	> 50	> 30	8.9	16	228	350	1.4	16	2.2	7.9	240	410	2.3	30	11	7.7	234	> 30	> 30	> 30	Cmax [21]: 130 nM; AUC [22]: 1 µM·h; bioavailability [23]: 9.3%; concentration at 24 h [24]: 4 nM; Drug metabolism [35]: Metabolite detected
CNC(=O)c1c(-c2ccc(F)cc2)oc2cc(N(C)S(C)(=O)=O)c(-c3ccc4ccn5c6cccc(F)c6cc5c4n3)cc12	> 50	> 30	< 1.9	4.2	960	450	7.9	26	114	2.6	1320	1000	6.3	43	140	5.6	396	> 30	18	> 30	solubility thermodynamic [5]: 2.9 µg/mL (≈ 4.75 µM); Cmax [21]: 370 nM; AUC [22]: 3.5 µM·h; bioavailability [23]: 24%; concentration at 24 h [24]: 31 nM

Now from value to compound, other results behind:

IC50 (Cytochrome P450 3A4) [µM]	EC50 [2] [µM]	Papp [6] [×10⁻⁶ cm/s]	clearance [7] [mL/min/kg]	half-life [8] [min]	Cmax [9] [nM]	AUC [10] [µM·h]	bioavailability [11] [%]	concentration at 24 h [12] [nM]	clearance [13] [mL/min/kg]	half-life [14] [min]	Cmax [15] [nM]	AUC [16] [µM·h]	bioavailability [17] [%]	concentration at 24 h [18] [nM]	clearance [19] [mL/min/kg]	half-life [20] [min]	Structure (SMILES)	IC50 [1] [µM]	IC50 [3] [µM]	IC50 [4] [µM]	other results
> 50	> 30	14.2	2.3	720	950	8.8	18	69	2.9	780	1300	9.2	54	76	11	354	CNC(=O)c1c(-c2ccc(F)cc2)oc2cc(N(C)S(C)(=O)=O)c(-c3ccc4c(n3)-c3cc5c(F)cccc5n3CC4)cc12	> 30	18	> 30	solubility thermodynamic [5]: 4.7 µg/mL (≈ 7.67 µM); Cmax [21]: 320 nM; AUC [22]: 1.7 µM·h; bioavailability [23]: 22%; concentration at 24 h [24]: 6.3 nM; AUC [25]: 37 µM·h; AUC [26]: 100 µM·h; AUC [27]: 181 µM·h; Cmax [28]: 4300 nM; Cmax [29]: 8.2 µM; Cmax [30]: 11 µM; Tmax [31]: 4 h
–	–	–	5.2	576	120	1.1	4	10	–	–	–	–	–	–	–	–	CNC(=O)c1c(-c2ccc(F)cc2)oc2cc(N(C)S(C)(=O)=O)c(-c3ccc4c(n3)-c3cc5c(F)cccc5n3C4)cc12	–	–	–	Tmax [31]: 3 h
–	–	7.9	–	–	–	–	–	–	–	–	–	–	–	–	–	–	CNC(=O)c1c(-c2ccc(F)cc2)oc2cc(N(C)S(C)(=O)=O)c(-c3ccc4c(n3)-c3cc5c(F)cccc5n3CO4)cc12 [MK-8876]	–	–	–	AUC [25]: 16 µM·h; AUC [26]: 83 µM·h; AUC [27]: 226 µM·h; Cmax [28]: 1500 nM; Cmax [29]: 6.7 µM; Cmax [30]: 12 µM

From ChEMBL document CHEMBL4311939, “Design and evaluation of novel tetracyclic benzofurans as palm site allosteric inhibitors of HCV NS5B polymerase” (Bioorg Med Chem Lett, 2019)
